Results: publication PMC4764201, “High Throughput Screen for Escherichia coli Twin Arginine Translocation (Tat) Inhibitors” (PLoS ONE, 2016)

Tests used:
[1] = biological target: T1, E. coli Tat machinery (IMVs containing overproduced TatABC) (Escherichia coli, UniProt P69423+P69425+P69428); experiment: In vitro Tat transport assay of pre-SufI into IMVs, NADH as energy source; type: biochemical; details: hit compound 20 μM; NADH 4 mM; 37°C 30 min
Procedure: (§1) To directly test for inhibition of Tat transport, a gel-based in vitro Tat transport assay was performed using pre-SufI, an authentic Tat precursor protein [7]. In short, this assay consists of incubating a Tat substrate and a Δψ-generating energy source with inverted membrane vesicles (IMVs) containing overproduced TatABC, digesting remaining external protein with a protease, and then analyzing via SDS-PAGE. This assay was run twice using NADH and ATP (if warranted) as energy sources to generate the necessary Δψ. NADH generates a Δψ using respiratory proteins (i.e., the NADH dehydrogenase and cytochrome bo3 ubiquinol oxidase complexes) and ATP generates a Δψ by reversal of ATP synthase. A true Tat inhibitor would survive both assays. In contrast, a respiration inhibitor is expected to reduce Tat transport when only one of the two energy sources is used (except for an ionophore).
Fig 8 Effect of Hits from the Local HTS on In Vitro Tat Transport. (A) Tat transport assays of pre-SufI using NADH to generate a Δψ. Inverted membrane vesicles (IMVs; A280 = 5.0), the fluorescent substrate pre-SufI-IAC^Atto565 (90 nM), and NADH (4 mM) were incubated at 37°C for 30 min with DMSO (control) or with hit compound (20 μM). Samples were treated with the protease proteinase K, run on SDS-PAGE, and analyzed by in-gel fluorescence imaging. Assays were run in duplicate. Band intensity corresponds to the amount of protein transported into the IMV lumen. The following 7 compounds survived this screen: 1^JS, 51^JS, 55^JS, 111^JS, 181^JS, 202^JS, and 140^JS (boxed in red). (B) Tat transport assays of pre-SufI using ATP to generate a Δψ. All 7 compounds surviving the screen in (A) were tested using a Tat transport assay performed identically to those in (A) except that ATP (1 mM) was used in place of NADH. Compound 55^JS was eliminated by this assay—the other 6 compounds survived (boxed in red). (C) Chemical structure of compound 55^JS, N-(4,7-Dioxo-4,7-dihydro-2,1,3-benzoxadiazol-5-yl)acetamide.
Isolation of inverted membrane vesicles (IMVs), Western blot analyses and purification of pre-SufI-IAC were performed as described previously. Western blots were performed using rabbit anti-mCherry antibodies (1:10,000 dilution) in the presence of 0.1% Triton X-100 and 0.1% Tween 20. The pre-SufI-IAC protein was labeled with Atto565 maleimide, and the resultant fluorescent protein, pre-SufI-IAC^Atto565, was used as a substrate for the in vitro Tat transport assays (A280 = 5.0), as described previously. The presence of a Δψ was determined by measuring oxonol VI fluorescence in presence of Tat^+ IMVs (A280 = 0.5), as described previously, except that the translocation buffer lacked BSA. Steady-state fluorescence spectra and fluorescence intensities of whole cells producing mCherry proteins were determined with an SLM-8100 spectrofluorometer.
Supplementary file pone.0149659.s003.tiff: S3 Fig IC50's for Hit Compound 181^JS. (A) The total cellular mCherry fluorescence (live cell assay; n = 1), (B) the in vitro NADH-dependent Tat transport efficiency of pre-SufI (n = 1), and (C) the maximum transmembrane electrical potential gradient (n = 1) were measured for a range of concentrations of compound 181^JS (S2E Fig). (D) SDS-PAGE gel showing in-gel fluorescence data used in (B). For (A), cells expressing spTorA-mCherry-SsrA were grown under Tat^++ conditions in a 384-well plate in the presence of 0, 0.08, 0.15, 0.3, 0.63, 1.25, 2.5, 5, 10, 20, or 40 μM compound 181^JS, as described for the HTS assay (see Methods). For (B) and (C), IMVs were incubated with the same concentrations of compound 181^JS prior to initiation of Tat transport and Δψ generation by the addition of NADH, as described previously. The red curves are best-fits using y = d + (100-d)/(1+(x/IC50)^b), where b is a slope factor and d is the high concentration asymptote. (TIFF) Click here for additional data file.

[2] = biological target: T1, E. coli Tat machinery (IMVs containing overproduced TatABC); experiment: In vitro Tat transport assay of pre-SufI into IMVs, ATP as energy source; type: biochemical; details: hit compound 20 μM; ATP 1 mM
Procedure: as §1
Fig 8 Effect of Hits from the Local HTS on In Vitro Tat Transport. (A) Tat transport assays of pre-SufI using NADH to generate a Δψ. […] Samples were treated with the protease proteinase K, run on SDS-PAGE, and analyzed by in-gel fluorescence imaging. Assays were run in duplicate. Band intensity corresponds to the amount of protein transported into the IMV lumen. The following 7 compounds survived this screen: 1^JS, 51^JS, 55^JS, 111^JS, 181^JS, 202^JS, and 140^JS (boxed in red). (B) Tat transport assays of pre-SufI using ATP to generate a Δψ. All 7 compounds surviving the screen in (A) were tested using a Tat transport assay performed identically to those in (A) except that ATP (1 mM) was used in place of NADH. […]
Isolation of inverted membrane vesicles (IMVs), Western blot analyses and purification of pre-SufI-IAC were performed as described previously. […] The presence of a Δψ was determined by measuring oxonol VI fluorescence in presence of Tat^+ IMVs (A280 = 0.5), as described previously, except that the translocation buffer lacked BSA. Steady-state fluorescence spectra and fluorescence intensities of whole cells producing mCherry proteins were determined with an SLM-8100 spectrofluorometer.

T1 sequence (P69423 2-258): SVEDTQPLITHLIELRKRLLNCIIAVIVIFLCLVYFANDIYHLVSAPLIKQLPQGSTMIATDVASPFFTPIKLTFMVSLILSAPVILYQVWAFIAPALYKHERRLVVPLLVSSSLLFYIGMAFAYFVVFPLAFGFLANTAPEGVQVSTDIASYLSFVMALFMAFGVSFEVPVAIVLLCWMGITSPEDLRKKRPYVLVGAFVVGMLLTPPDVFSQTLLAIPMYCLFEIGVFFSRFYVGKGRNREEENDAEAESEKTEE
T1 sequence (P69425 whole entry): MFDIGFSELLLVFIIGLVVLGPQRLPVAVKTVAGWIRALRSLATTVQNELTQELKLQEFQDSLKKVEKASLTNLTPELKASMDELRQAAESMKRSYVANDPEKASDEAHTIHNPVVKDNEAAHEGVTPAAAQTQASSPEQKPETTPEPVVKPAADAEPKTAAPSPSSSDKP
T1 sequence (P69428 whole entry): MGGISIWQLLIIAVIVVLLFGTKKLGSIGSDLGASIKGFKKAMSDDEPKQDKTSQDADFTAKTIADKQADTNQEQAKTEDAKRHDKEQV

CC(=O)NC1=CC(=O)c2nonc2C1=O [Compound 55^JS, N-(4,7-dioxo-2,1,3-benzoxadiazol-5-yl)acetamide]
outcome of NADH-dependent in vitro Tat transport screen (survival = visible inhibition of Tat transport) [1]: survived
outcome of ATP-dependent in vitro Tat transport screen (survival = visible inhibition of Tat transport) [2]: eliminated
